From patent US9376436B2, “2-(pyridin-2yl)-1, 7-diaza-spiro [4.4] nonane-6-one compound as voltage-gated sodium channels modulators” (CONVERGENCE PHARMACEUTICALS LIMITED, priority 2011, dated 2016) come the findings set out here.

Each structure is given as a SMILES string. Counter-ions that a name gives are not always drawn. Like-named read-outs stand apart in the source and are kept apart here.

This assay concerns the target T1, hNaV1.7 (Homo sapiens, UniProt Q15858).
T1 construct: expressed in transfected cells; host or cells: HEK293
Put plainly: QPatch NaV1.7 assay (whole-cell patch clamp, QPatch16x). The format is cell-based. The note with it: HEK293-hNaV1.7 cells. The method in brief:
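Automated whole-cell recordings in hNaV1.7-expressing HEK293 cells, holding at either −90 mV (mostly closed channels) or the half-inactivation voltage. Compounds applied cumulatively at four concentrations for 120 s each; peak current on 20 ms depolarisation to 0 mV fitted by Hill equation to yield pIC50.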

[1] abbreviates: holding voltage V1/2 SSI (half of channels inactivated), read-out: QP Nav1.7 SSI vhalf pIC50 (converted).
Setting [2] is: holding voltage −90 mV (most channels closed), read-out: QP Nav1.7 −90 mV pIC50 (converted).

T1 sequence (Q15858 whole entry): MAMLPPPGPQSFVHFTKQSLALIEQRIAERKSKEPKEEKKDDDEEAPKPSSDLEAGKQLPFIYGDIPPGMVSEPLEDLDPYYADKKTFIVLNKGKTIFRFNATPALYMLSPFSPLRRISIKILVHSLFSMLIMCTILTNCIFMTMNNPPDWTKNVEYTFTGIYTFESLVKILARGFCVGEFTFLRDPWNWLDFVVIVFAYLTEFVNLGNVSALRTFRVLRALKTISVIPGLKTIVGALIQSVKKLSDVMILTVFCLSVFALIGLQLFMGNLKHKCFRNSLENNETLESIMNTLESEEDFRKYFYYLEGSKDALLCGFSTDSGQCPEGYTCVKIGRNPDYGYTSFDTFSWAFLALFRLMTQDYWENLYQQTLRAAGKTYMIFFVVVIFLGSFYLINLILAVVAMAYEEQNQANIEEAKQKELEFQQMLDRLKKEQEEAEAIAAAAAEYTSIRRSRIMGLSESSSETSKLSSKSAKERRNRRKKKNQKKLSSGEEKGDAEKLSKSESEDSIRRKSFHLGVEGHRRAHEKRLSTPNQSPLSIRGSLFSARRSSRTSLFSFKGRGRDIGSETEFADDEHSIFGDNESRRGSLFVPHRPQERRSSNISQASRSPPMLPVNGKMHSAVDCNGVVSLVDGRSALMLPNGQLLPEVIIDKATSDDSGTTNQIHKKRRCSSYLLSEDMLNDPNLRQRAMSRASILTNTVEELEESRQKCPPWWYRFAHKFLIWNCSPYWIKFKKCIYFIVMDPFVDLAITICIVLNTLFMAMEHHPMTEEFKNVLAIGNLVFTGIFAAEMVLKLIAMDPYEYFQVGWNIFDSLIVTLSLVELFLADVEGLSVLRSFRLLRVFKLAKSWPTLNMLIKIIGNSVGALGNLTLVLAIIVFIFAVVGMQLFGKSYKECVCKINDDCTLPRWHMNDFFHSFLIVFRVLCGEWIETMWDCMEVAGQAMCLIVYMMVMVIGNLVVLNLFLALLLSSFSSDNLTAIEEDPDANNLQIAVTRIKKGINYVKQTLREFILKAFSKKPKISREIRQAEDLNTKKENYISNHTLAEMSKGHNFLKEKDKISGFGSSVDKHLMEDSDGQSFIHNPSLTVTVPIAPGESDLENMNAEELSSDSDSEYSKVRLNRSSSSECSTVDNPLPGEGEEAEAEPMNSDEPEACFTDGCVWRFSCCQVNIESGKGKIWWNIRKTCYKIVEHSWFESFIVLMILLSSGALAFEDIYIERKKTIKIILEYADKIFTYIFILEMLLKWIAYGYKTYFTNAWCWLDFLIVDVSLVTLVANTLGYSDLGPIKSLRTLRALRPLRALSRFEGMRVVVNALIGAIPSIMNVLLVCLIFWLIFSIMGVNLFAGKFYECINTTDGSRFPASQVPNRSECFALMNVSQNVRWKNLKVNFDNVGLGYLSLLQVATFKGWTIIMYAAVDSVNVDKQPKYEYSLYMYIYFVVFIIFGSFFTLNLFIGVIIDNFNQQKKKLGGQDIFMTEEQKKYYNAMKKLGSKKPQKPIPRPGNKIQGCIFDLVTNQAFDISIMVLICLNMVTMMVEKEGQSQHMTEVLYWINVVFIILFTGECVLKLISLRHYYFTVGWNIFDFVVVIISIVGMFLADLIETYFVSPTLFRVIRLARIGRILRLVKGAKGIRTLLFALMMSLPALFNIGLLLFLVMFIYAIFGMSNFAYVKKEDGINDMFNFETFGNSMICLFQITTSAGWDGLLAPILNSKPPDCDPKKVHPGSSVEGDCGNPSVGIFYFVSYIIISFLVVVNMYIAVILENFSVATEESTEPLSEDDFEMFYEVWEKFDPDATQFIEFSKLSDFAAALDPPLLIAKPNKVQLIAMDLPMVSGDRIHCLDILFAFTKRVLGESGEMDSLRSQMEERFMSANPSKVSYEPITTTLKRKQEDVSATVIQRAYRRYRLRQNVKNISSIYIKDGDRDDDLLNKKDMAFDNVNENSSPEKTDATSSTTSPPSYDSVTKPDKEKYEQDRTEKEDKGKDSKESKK

As for `CN1CCC[C@@]2(CC[C@@H](c3cc(-c4ccc(F)cc4)ccn3)N2)C1=O` [Example 72, (2S,5R)-2-[4-(4-Fluoro-phenyl)-pyridin-2-yl]-7-methyl-1,7-diaza-spiro[4.5]decan-6-one hydrochloride], the IC50 reads like this: under setting [1], 20 µM; under setting [2], 158 µM.
In the same order, the values of `Cc1cnc([C@H]2CC[C@]3(CCN(C)C3=O)N2)cc1-c1ccc(C(F)(F)F)cc1` [Example 42, (2R,5R)-7-Methyl-2-[5-methyl-4-[4-(trifluoromethyl)phenyl]-2-pyridyl]-1,7-diazaspiro[4.4]nonan-6-one hydrochloride] are 2 µM and 25.1 µM.
Taken in the same sequence, the figures for `CC1(C)C[C@@]2(CC[C@H](c3cc(-c4ccc(C(F)(F)F)cc4)ccn3)N2)C(=O)N1` [Example 45, (2R,5S)-8,8-Dimethyl-2-[4-[4-(trifluoromethyl)phenyl]-2-pyridyl]-1,7-diazaspiro[4.4]nonan-6-one hydrochloride] were 3.16 µM and 39.8 µM.
In the same order, the values of `Cc1cnc([C@@H]2CC[C@]3(CCN(C)C3=O)N2)cc1-c1ccc(C(F)(F)F)cc1` [Example 43, (2S,5R)-7-Methyl-2-[5-methyl-4-[4-(trifluoromethyl)phenyl]-2-pyridyl]-1,7-diazaspiro[4.4]nonan-6-one hydrochloride] are 3.16 µM and 39.8 µM.
In the case of `CCC(=O)c1ccc(F)c(-c2ccnc([C@H]3CC[C@@]4(CCN(C)C4=O)N3)c2)c1` [Example 257, (2R,5S)-2-[4-(2-Fluoro-5-propanoyl-phenyl)-2-pyridyl]-7-methyl-1,7-diazaspiro[4.4]nonan-6-one hydrochloride], the IC50 was 63.1 µM under setting [1] and 2510 µM under setting [2].
In the same order, the values of `Cc1ccc(-c2cc(C)nc([C@H]3CC[C@@]4(CCN(C)C4=O)N3)c2)cc1` [Example 87, (2R,5S)-7-Methyl-2-[6-methyl-4-(p-tolyl)-2-pyridyl]-1,7-diazaspiro[4.4]nonan-6-one hydrochloride] are 6.31 µM and 126 µM.
Taken in the same sequence, the figures for `O=C1NCC[C@@]12CC[C@@H](c1cc(-c3ccc(C(F)(F)F)cc3F)ccn1)N2` [Example 38, (2S,5S)-2-[4-[2-Fluoro-4-(trifluoro-methyl)phenyl]-2-pyridyl]-1,7-diazaspiro[4.4]nonan-6-one hydrochloride] were 7.94 µM and 63.1 µM.
Turning to `CN1CC[C@@]2(CC[C@H](c3cc(-c4cc(OC(F)(F)F)ccc4F)ccn3)N2)C1=O` [Example 176, (2R,5S)-2-[4-[2-Fluoro-5-(trifluoromethoxy)phenyl]-2-pyridyl]-7-methyl-1,7-diazaspiro[4.4]nonan-6-one hydrochloride], the IC50 is 20 µM under setting [1] and 200 µM under setting [2].
In the same order, the values of `CN1CC[C@@]2(CC[C@H](c3cc(-c4ccc(OC(F)(F)F)cc4)ccn3)N2)C1=O` [Example 5, (2R,5S)-7-Methyl-2-[4-(4-trifluoro-methoxy-phenyl)-pyridin-2-yl]-1,7-diaza-spiro[4.4]nonan-6-one hydrochloride] are 3.98 µM and 25.1 µM.
Taken in the same sequence, the figures for `O=C1NCC[C@]12CC[C@H](c1cc(-c3ccc(C(F)(F)F)cc3)ccn1)N2` [Example 115, (2R,5R)-2-[4-[4-(Trifluoromethyl)phenyl]-2-pyridyl]-1,7-diazaspiro[4.4]nonan-6-one hydrochloride] were 2.51 µM and 31.6 µM.
In the same order, the values of `CCN1[C@H](c2cc(-c3ccc(C(F)(F)F)cc3)ccn2)CC[C@]12CCCNC2=O` [Example 233, hydrochloride] are 12.6 µM and 31.6 µM.
On to `O=C1NCCC[C@]12CC[C@@H](c1cc(-c3ccc(F)cc3)ccn1)N2` [Example 113, (2S,5S)-2-[4-(4-Fluoro-phenyl)-pyridin-2-yl]-1,7-diaza-spiro[4.5]decan-6-one hydrochloride], for which the IC50 under setting [1] was 50.1 µM and the IC50 under setting [2] is 200 µM.
Consider `CN1CC[C@@]2(CC[C@H](c3cc(-c4cn(C)c5ccccc45)ccn3)N2)C1=O` [Example 157, (2R,5S)-7-Methyl-2-[4-(1-methyl-1H-indol-3-yl)-pyridin-2-yl]-1,7-diaza-spiro[4.4]nonan-6-one hydrochloride], for which the IC50 is, setting by setting: under setting [1], 25.1 µM; under setting [2], 79.4 µM.
For `CCOc1ccc(F)c(-c2ccnc([C@@H]3CC[C@@]4(CCN(C)C4=O)N3)c2)c1` [Example 147, (2S,5S)-2-[4-(5-Ethoxy-2-fluoro-phenyl)-2-pyridyl]-7-methyl-1,7-diazaspiro[4.4]nonan-6-one hydrochloride], the IC50 under setting [1] was 3.16 µM and the IC50 under setting [2] is 50.1 µM.
`CN1CC[C@@]2(CC[C@H](c3cc(-c4ccc(C5(C#N)CC5)cc4)ccn3)N2)C1=O` [Example 171, 1-[4-[2-[(2R,5S)-7-Methyl-6-oxo-1,7-diazaspiro[4.4]nonan-2-yl]-4-pyridyl]phenyl]cyclopropanecarbonitrile hydrochloride]: the IC50 under setting [1] was 50.1 µM and the IC50 under setting [2] is 158 µM.
As to `CN1CC[C@@]2(CC[C@H](c3cc(-c4cc(-c5ccnn5C)ccc4F)ccn3)N2)C1=O` [Example 192, (2R,5S)-2-[4-[2-Fluoro-5-(2-methylpyrazol-3-yl)phenyl]-2-pyridyl]-7-methyl-1,7-diazaspiro[4.4]nonan-6-one hydrochloride], the IC50 under setting [1] is 1000 µM.
For the compound `CC(C)Oc1ccc(-c2ccnc([C@H]3CC[C@@]4(CCN(C)C4=O)N3)c2)cc1C#N` [Example 180, 2-Isopropoxy-5-[2-[(2R,5S)-7-methyl-6-oxo-1,7-diazaspiro[4.4]nonan-2-yl]-4-pyridyl]benzonitrile hydrochloride], the IC50 is 20 µM under setting [1] and 1000 µM under setting [2].
On to `CCOc1ccc(F)c(-c2cc([C@@H]3CC[C@@]4(CCN(C)C4=O)N3)ncc2C)c1` [Example 138, (2S,5S)-2-[4-(5-Ethoxy-2-fluoro-phenyl)-5-methyl-2-pyridyl]-7-methyl-1,7-diazaspiro[4.4]nonan-6-one hydrochloride], for which the IC50 is 25.1 µM under setting [1] and 200 µM under setting [2].
Taken in the same sequence, the figures for `CN1CC[C@@]2(CC[C@@H](c3cc(-c4ccc(C(F)(F)F)cc4)c(F)cn3)N2)C1=O` [Example 59, (2S,5S)-2-[5-Fluoro-4-[4-(trifluoromethyl)phenyl]-2-pyridyl]-7-methyl-1,7-diazaspiro[4.4]nonan-6-one hydrochloride] were 3.16 µM and 100 µM.
Taken in the same sequence, the figures for `Cc1cc(-c2ccc(C(F)(F)F)cc2)cc([C@@H]2CC[C@]3(CCN(C)C3=O)N2)n1` [Example 30, (2S,5R)-7-Methyl-2-[6-methyl-4-[4-(trifluoromethyl)phenyl]-2-pyridyl]-1,7-diazaspiro[4.4]nonan-6-one hydrochloride] were 5.01 µM and 39.8 µM.
Taken in the same sequence, the figures for `CCOc1ccc(-c2ccnc([C@H]3CC[C@@]4(CCN(C)C4=O)N3)c2)cc1` [Example 76, (2R,5S)-2-[4-(4-Ethoxyphenyl)-2-pyridyl]-7-methyl-1,7-diazaspiro[4.4]nonan-6-one hydrochloride] were 3.98 µM and 63.1 µM.
For the compound `Cc1cc(-c2ccc(F)cc2)cc([C@@H]2CC[C@]3(CCN(C)C3=O)N2)n1` [Example 56, (2S,5R)-2-[4-(4-Fluorophenyl)-6-methyl-2-pyridyl]-7-methyl-1,7-diazaspiro[4.4]nonan-6-one hydrochloride], the IC50 reads like this: under setting [1], 10 µM; under setting [2], 79.4 µM.
In the same order, the values of `Cc1c(-c2ccc(C(F)(F)F)cc2)ccnc1[C@@H]1CC[C@]2(CCN(C)C2=O)N1` [Example 15, (2S,5R)-7-Methyl-2-[3-methyl-4-[4-(trifluoromethyl)phenyl]-2-pyridyl]-1,7-diazaspiro[4.4]nonan-6-one hydrochloride] are 6.31 µM and 25.1 µM.
As to `CCOc1ccc(F)c(-c2cc([C@@H]3CC[C@]4(CCN(C)C4=O)N3)ncc2CC)c1` [Example 242, (2S,5R)-2-[4-(5-Ethoxy-2-fluoro-phenyl)-5-ethyl-2-pyridyl]-7-methyl-1,7-diazaspiro[4.4]nonan-6-one hydrochloride], the IC50 is 20 µM under setting [1] and 100 µM under setting [2].
Consider `Cc1cc(-c2cc(C(F)(F)F)ccc2C#N)cc([C@H]2CC[C@]3(CCN(C)C3=O)N2)n1` [Example 22, 2-[2-Methyl-6-[(2R,5R)-7-methyl-6-oxo-1,7-diazaspiro[4.4]-nonan-2-yl]-4-pyridyl]-4-(trifluoromethyl)-benzonitrile hydrochloride], for which the IC50 under setting [1] is 158 µM and the IC50 under setting [2] was 1000 µM.
On to `O=C1NCC[C@@]12CC[C@H](c1cc(-c3ccc(C(F)(F)F)cc3F)ccn1)N2` [Example 39, (2R,5S)-2-[4-[2-Fluoro-4-(trifluoro-methyl)phenyl]-2-pyridyl]-1,7-diazaspiro[4.4]nonan-6-one hydrochloride], for which the IC50 reads like this: under setting [1], 20 µM; under setting [2], 79.4 µM.
`Cc1c(-c2ccc(F)cc2)ccnc1[C@@H]1CC[C@]2(CCN(C)C2=O)N1` [Example 18, (2S,5R)-7-Methyl-2-[3-methyl-4-[4-fluorophenyl]-2-pyridyl]-1,7-diazaspiro[4.4]nonan-6-one hydrochloride]: the IC50 is 31.6 µM under setting [1] and 794 µM under setting [2].
`CCOc1ccc(F)c(-c2cc(C(C)C)nc([C@@H]3CC[C@]4(CCN(C)C4=O)N3)c2)c1` [Example 235, (2S,5R)-2-[4-(5-Ethoxy-2-fluoro-phenyl)-6-isopropyl-2-pyridyl]-7-methyl-1,7-diazaspiro[4.4]nonan-6-one hydrochloride]: the IC50 reads like this: under setting [1], 2 µM; under setting [2], 15.8 µM.
